Patent publication US6780994B2, “Phthalimido arylpiperazines useful in the treatment of benign prostatic hyperplasia” (Ortho-McNeil Pharmaceutical, Inc., priority 1998, dated 2004)

Key:
α1a-AR = molecular target: T1, α1a-AR (Homo sapiens, UniProt P35348); assay: radioligand ([125I]-HEAT) receptor binding assay, COS cell membranes expressing cloned receptor; conditions: [125I]-HEAT 50 pM, 1 hour room temperature
T1 construct: expressed in transfected cells; host or cells: COS cells, pcDNA3 vector, transient DEAE-dextran transfection
T1 sequence (P35348 1-466): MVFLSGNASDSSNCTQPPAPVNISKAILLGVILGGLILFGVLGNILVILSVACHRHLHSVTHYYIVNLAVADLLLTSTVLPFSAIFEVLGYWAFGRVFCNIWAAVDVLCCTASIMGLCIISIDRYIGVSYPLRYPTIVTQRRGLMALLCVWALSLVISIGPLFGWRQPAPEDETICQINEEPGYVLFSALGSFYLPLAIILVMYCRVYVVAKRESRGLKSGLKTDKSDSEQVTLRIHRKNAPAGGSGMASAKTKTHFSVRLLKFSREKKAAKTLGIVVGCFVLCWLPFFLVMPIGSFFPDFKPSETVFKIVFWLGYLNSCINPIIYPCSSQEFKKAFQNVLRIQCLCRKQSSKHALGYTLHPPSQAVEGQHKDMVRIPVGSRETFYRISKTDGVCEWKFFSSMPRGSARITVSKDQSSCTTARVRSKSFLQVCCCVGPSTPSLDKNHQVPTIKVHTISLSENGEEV
Description: The first assay tested the ability of compounds of Formula I to bind to membrane bound receptors α1a-AR, α1b-AR and α1d-AR.
The DNA sequences of the three cloned human α1-AR subtypes have been published. […] We used published DNA sequence information to design primers for use in RT-PCR amplification of each subtype to obtain cloned cDNAs. Human poly A+ RNA was obtained from commercially available sources and included hippocampus and prostate samples, sources which have been cited in the literature. For the primary screen a radioligand binding assay was used which employed membrane preparations from cells expressing the individual cloned receptor cDNAs. […] Each α1 receptor subtype was cloned from poly A+ RNA by the standard method of reverse transcription-polymerase chain reaction (RT-PCR). The following sources of polyA+ RNA were used for the cloning of the α1 receptor subtypes: α1a-AR, human hippocampus and prostate, α1b-AR, human hippocampus, α1d-AR, human hippocampus. The resulting cDNAs were cloned into the pcDNA3 mammalian expression vector (Invitrogen Corp., San Diego Calif.). Each DNA was sequenced for verification and to detect any possible mutations introduced during the amplification process. Any deviation in sequence from the published consensus for each receptor subtype was corrected by site-directed mutagenesis.
The three α1-AR subtypes (a, b, d) were transfected into COS cells using a standard DEAE-dextran procedure with a chloroquine shock. […] Approximately 72 hours post-transfection, the cells were harvested and COS membranes were prepared. Transfected COS cells from 25 plates (100 mm) were scraped and suspended in 15 mL of TE buffer (50 mM Tris-HCl, 5 mM EDTA, pH 7.4). The suspension was disrupted with a homogenizer. It was then centrifuged at 1000× g for 10 minutes at 4° C. […] The pellet was resuspended in 5 mL TNE buffer (50 mM Tris-HCl, 5 mM EDTA, 150 mM NaCl, pH 7.4). The resulting membrane preparation was aliquoted and stored at −70° C. The protein concentration was determined following membrane solubilization with TritonX-100.
The ability of each compound to bind to each of the α1-AR subtypes was assessed in a receptor binding assay. […] The plate was incubated for 1 hour at room temperature and the reaction mixtures were filtered through a Packard GF/C Unifilter filter plate. The filter plate was dried for 1 hour in a vacuum oven. Scintillation fluid ([…]) was added to each well, and the filter plate was counted in a Packard Topcount scintillation counter. Data was analyzed using GraphPad Prism software.

rat aorta tissues = assay: norepinephrine-induced contractile response of rat aortic rings; type: cell-based; conditions: norepinephrine-induced contraction, Long Evans rat aortic rings, 2 grams tension, 37° C.; read-out: IC50 of inhibition of contractile response in aortic tissue
Description: (§1) The contractile responses of rat prostatic tissue and rat aorta tissues were examined in the presence and absence of antagonist compounds. As an indication of the selectivity of antagonism, test compound effects on vascular smooth muscle contractility (α1b-AR and α1d-AR) were compared to the effects on prostatic smooth muscle (α1a-AR). Strips of prostatic tissue and aortic rings were obtained from Long Evans derived male rats weighing 275 grams and sacrificed by cervical dislocation. The prostate tissue was placed under 1 gram tension in a 10 ml bath containing phosphate buffered saline pH 7.4 at 32° C. and isometric tension was measured with force transducers. The aortic tissue was placed under 2 grams tension in a 10 ml bath containing phosphate buffered saline pH 7.4 at 37° C.

rat prostatic tissue = assay: norepinephrine-induced contractile response of rat prostatic tissue strips; type: cell-based; conditions: norepinephrine-induced contraction, Long Evans rat prostatic strips, 1 gram tension, 32° C.; read-out: IC50 of inhibition of contractile response in prostate tissue
Description: as §1

| Compound | IC50 (α1a-AR) | IC50 (rat aorta tissues) | IC50 (rat prostatic tissue) |
| --- | --- | --- | --- |
| CC(C)Oc1ccccc1N1CCN(CC(O)CNC(=O)c2ccc3c(c2)C(=O)N(c2cccc(F)c2)C3=O)CC1 (racemic) [Compound 4] | 1.5 nM | 63200 nM | 640 nM |
| CC(C)Oc1ccccc1N1CCN(CC(O)CNC(=O)c2ccc3c(c2)C(=O)N(c2ccc(O)cc2)C3=O)CC1 (single isomer, unassigned) [Compound 35] | 0.46 nM | – | – |
| CC(C)Oc1ccccc1N1CCN(CCCNC(=O)c2ccc3c(c2)C(=O)N(c2cccc(F)c2)C3=O)CC1 [Compound 6] | 0.41 nM | 2800 nM | 130 nM |
| CC(C)Oc1ccccc1N1CCN(C[C@@H](O)CNC(=O)c2ccc3c(c2)C(=O)N(c2cccc(F)c2)C3=O)CC1 [Compound 9] | 1 nM | 6500 nM | 230 nM |
| CC(C)Oc1ccccc1N1CCN(CC(O)CNC(=O)c2ccc3c(c2)C(=O)N(c2cccnc2)C3=O)CC1 (centres unmarked) [Compound 11] | 1.9 nM | – | – |
| COC(CNC(=O)c1ccc2c(c1)C(=O)N(c1cccc(F)c1)C2=O)CN1CCN(c2ccccc2OC(C)C)CC1 (centres unmarked) [Compound 14] | 7 nM | – | – |
| CC(C)Oc1ccccc1N1CCN(C[C@@H](O)CNC(=O)c2ccc3c(c2)C(=O)N(c2ccc(N(C)C)cc2)C3=O)CC1 [Compound 21, (S)-2-[4-(dimethylamino)phenyl]-2,3-dihydro-N-[2-hydroxy-3-[4-[2-(1-methylethoxy)phenyl]-1-piperazinyl]propyl]-1,3-dioxo-1H-isoindole-5-carboxamide] | 0.36 nM | 22400 nM | 810 nM |
| COc1ccccc1N1C(=O)c2ccc(C(=O)NCC(O)CN3CCN(c4ccccc4OC(C)C)CC3)cc2C1=O (centres unmarked) [Compound 26] | 1.6 nM | – | – |
| CC(C)Oc1ccccc1N1CCN(C[C@H](O)CNC(=O)c2ccc3c(c2)C(=O)N(c2cccc(F)c2)C3=O)CC1 [Compound 27] | 8 nM | – | – |
| CC(C)Oc1ccccc1N1CCN(CC(O)CNC(=O)c2ccc3c(c2)C(=O)N(c2ccc(N(C)C)cc2)C3=O)CC1 (centres unmarked) [Compound 28] | 0.8 nM | – | – |
| CC(C)Oc1ccccc1N1CCN(CC(O)CNC(=O)c2ccc3c(c2)C(=O)N(c2cc(F)cc(F)c2)C3=O)CC1 (centres unmarked) [Compound 29] | 0.89 nM | – | – |
| CC(C)Oc1ccccc1N1CCN(CC(O)CNC(=O)c2ccc3c(c2)C(=O)N(c2ccc([N+](=O)[O-])cc2)C3=O)CC1 (centres unmarked) [Compound 30] | 1.8 nM | – | – |
| COc1ccc(N2C(=O)c3ccc(C(=O)NCC(O)CN4CCN(c5ccccc5OC(C)C)CC4)cc3C2=O)cc1OC (centres unmarked) [Compound 38] | 0.93 nM | – | – |
| Cc1ccc(N2C(=O)c3ccc(C(=O)NCC(O)CN4CCN(c5ccccc5OC(C)C)CC4)cc3C2=O)cc1C (centres unmarked) [Compound 39] | 0.44 nM | – | – |
| CC(C)Oc1ccccc1N1CCN(CC(O)CNC(=O)c2ccc3c(c2)C(=O)N(c2ccc(C(C)(C)C)cc2)C3=O)CC1 (centres unmarked) [Compound 41] | 3.5 nM | – | – |
| CCOc1ccccc1N1CCN(CC(O)CNC(=O)c2ccc3c(c2)C(=O)N(c2cccc(F)c2)C3=O)CC1 (centres unmarked) [Compound 42] | 4.25 nM | – | – |

| Compound | IC50 (α1a-AR) | IC50 (rat aorta tissues) | IC50 (rat prostatic tissue) |
| --- | --- | --- | --- |
| COc1ccccc1N1CCN(CC(O)CNC(=O)c2ccc3c(c2)C(=O)N(c2cccc(F)c2)C3=O)CC1 (centres unmarked) [Compound 43] | 22 nM | – | – |
| CC(C)Oc1ccccc1N1CCN(CCCNC(=O)c2ccc3c(c2)C(=O)N(c2ccc(N(C)C)cc2)C3=O)CC1 [Compound 44] | 0.18 nM | – | – |
| COc1ccc(N2C(=O)c3ccc(C(=O)NCCCN4CCN(c5ccccc5OC(C)C)CC4)cc3C2=O)cc1 [Compound 45] | 0.11 nM | 3300 nM | 40 nM |
| Cc1ccc(N2C(=O)c3ccc(C(=O)NCCCN4CCN(c5ccccc5OC(C)C)CC4)cc3C2=O)cc1 [Compound 46] | 0.1 nM | – | – |
| CC(C)Oc1ccccc1N1CCN(CCCNC(=O)c2ccc3c(c2)C(=O)N(c2ccc(O)cc2)C3=O)CC1 [Compound 47] | 0.2 nM | – | – |
| CC(=O)c1ccc(N2C(=O)c3ccc(C(=O)NCC(O)CN4CCN(c5ccccc5OC(C)C)CC4)cc3C2=O)cc1 (centres unmarked) [Compound 48] | 1 nM | – | – |
| Cc1cccc(N2C(=O)c3ccc(C(=O)NCC(O)CN4CCN(c5ccccc5OC(C)C)CC4)cc3C2=O)c1 (centres unmarked) [Compound 49] | 0.9 nM | – | – |
| CC(C)Oc1ccccc1N1CCN(CC(O)CNC(=O)c2ccc3c(c2)C(=O)N(c2ccc(F)cc2)C3=O)CC1 (centres unmarked) [Compound 50] | 1.5 nM | – | – |
| CC(C)Oc1ccccc1N1CCN(CC(O)CNC(=O)c2ccc3c(c2)C(=O)N(c2ccccc2)C3=O)CC1 (centres unmarked) [Compound 51] | 0.9 nM | – | – |
| Cc1ccc(N2C(=O)c3ccc(C(=O)NCC(O)CN4CCN(c5ccccc5OC(C)C)CC4)cc3C2=O)cc1 (centres unmarked) [Compound 52] | 0.66 nM | – | – |
| CC(C)Oc1ccccc1N1CCN(CC(O)CNC(=O)c2ccc3c(c2)C(=O)N(c2ccc(Cl)cc2)C3=O)CC1 (centres unmarked) [Compound 53] | 0.95 nM | – | – |
| CC(C)Oc1ccccc1N1CCN(CC(O)CNC(=O)c2ccc3c(c2)C(=O)N(c2cccc(Cl)c2)C3=O)CC1 (centres unmarked) [Compound 54] | 0.73 nM | – | – |
| CC(C)Oc1ccccc1N1CCN(CC(O)CNC(=O)c2ccc3c(c2)C(=O)N(c2ccc(Cl)c(Cl)c2)C3=O)CC1 (centres unmarked) [Compound 56] | 0.81 nM | – | – |
| CC(C)Oc1ccccc1N1CCN(CC(O)CNC(=O)c2ccc3c(c2)C(=O)N(c2cccc(C(F)(F)F)c2)C3=O)CC1 (centres unmarked) [Compound 57] | 0.74 nM | – | – |
| CC(C)Oc1ccccc1N1CCN(CC(O)CNC(=O)c2ccc3c(c2)C(=O)N(c2ccc(O)cc2)C3=O)CC1 (centres unmarked) [Compound 58] | 0.88 nM | – | – |
